# Laboratory results from ChEMBL document CHEMBL4359869, “A new GSH-responsive prodrug of 5-aminolevulinic acid for photodiagnosis and photodynamic therapy of tumors” (Eur J Med Chem, 2019).
# pIC50: −log10 of the molar value. Activity calls are given as the source filed them. The calls are words filed in the database; no cut-off is given here.
# Assays:
# [1] = test system: HeLa; experiment: Cytotoxicity against human HeLa cells assessed as cell viability at 10 to 1000 uM incubated for 4 hrs measured under dark conditions by MTT assay; type: cell-based
# [2] = Prodrug activation in human A375 cells assessed as increase in GSH-mediated PpIX production at 100 to 300 uM incubated for 4 hrs by fluorescence based assay; type: cell-based; settings: a-375, 4 h
# [3] = test system: A549; experiment: Photosensitization activity against human A549 cells assessed as cell viability at 100 uM incubated for 4 hrs followed by LED light array irradiation followed by further incubation for 24 hrs by MTT assay; type: functional; settings: A549, light or radiation study, read-out: Activity
# [4] = test system: HeLa; experiment: Photosensitization activity against human HeLa cells assessed as cell viability at 100 uM incubated for 4 hrs followed by LED light array irradiation followed by further incubation for 24 hrs by MTT assay; type: functional
# [5] = Prodrug activation in human HeLa cells assessed as increase in GSH-mediated PpIX production at 100 uM incubated for 4 hrs by fluorescence imaging analysis; type: cell-based
# [6] = Chemical stability of the compound in buffer at 1M at pH 7.4 by HPLC analysis; type: physicochemical
# [7] = Prodrug activation in human HCT116 cells assessed as increase in GSH-mediated PpIX production at 100 to 300 uM incubated for 4 hrs by fluorescence based assay; type: cell-based; settings: hct-116, 4 h
# [8] = Chemical stability of the compound in buffer at 1M at pH 4 by HPLC analysis; type: physicochemical
# [9] = Prodrug activation in human HeLa cells assessed as increase in GSH-mediated PpIX production at 10 to 300 uM incubated for 4 hrs by fluorescence based assay; type: cell-based
# [10] = test system: HCT-116; experiment: Photosensitization activity against human HCT116 cells assessed as cell viability at 100 uM incubated for 4 hrs followed by LED light array irradiation followed by further incubation for 24 hrs by MTT assay; type: functional; settings: HCT-116, light or radiation study, read-out: Activity
# [11] = Chemical stability of the compound in buffer at 1M at pH 9 by HPLC analysis; type: physicochemical
# [12] = Prodrug activation in human A549 cells assessed as increase in GSH-mediated PpIX production at 100 to 300 uM incubated for 4 hrs by fluorescence based assay; type: cell-based; settings: a549, 4 h
# [13] = test system: A-375; experiment: Photosensitization activity against human A375 cells assessed as cell viability at 100 uM incubated for 4 hrs followed by LED light array irradiation followed by further incubation for 24 hrs by MTT assay; type: functional; settings: A-375, light or radiation study, read-out: Activity
# [14] = Prodrug activation in human HeLa cells assessed as increase in GSH-mediated PpIX production at 1000 uM incubated for 4 hrs by fluorescence based assay; type: cell-based
# [15] = test system: HeLa; experiment: Photosensitization activity against human HeLa cells assessed as reduction in cell viability incubated for 4 hrs followed by LED light array irradiation followed by further incubation for 24 hrs by MTT assay; type: functional, cell-based; settings: light or radiation study
# [16] = n-octanol/water partition coefficient, log P of the compound at 1M incubated for 0.5 hrs by HPLC analysis; type: physicochemical
# [17] = Prodrug activation in human HCT116 cells assessed as increase in GSH-mediated PpIX production at 100 uM incubated for 4 hrs by fluorescence based assay relative to 5-ALA; type: cell-based; settings: hct-116, 4 h
# [18] = Prodrug activation in human HeLa cells assessed as increase in GSH-mediated PpIX production at 100 uM incubated for 4 hrs by fluorescence based assay relative to 5-ALA-OMe; type: cell-based
# [19] = Prodrug activation in PBS buffer assessed as GSH-mediated cleaved product C-SA formation at 0.5 mM incubated for 1 hr measured at 37 degC and pH 7.4 in presence of 10 mM GSH by ESI-MS spectrometry; settings: pH 7.4, 1 h, 500 µM
# [20] = Prodrug activation in human HCT116 cells assessed as increase in GSH-mediated PpIX production at 500 to 1000 uM incubated for 4 hrs by fluorescence based assay; type: cell-based; settings: hct-116, 4 h
# [21] = Prodrug activation in human A375 cells assessed as increase in GSH-mediated PpIX production at 100 uM incubated for 4 hrs by fluorescence based assay relative to 5-ALA; type: cell-based; settings: a-375, 4 h
# [22] = Chemical stability of the compound in buffer at 1 M at pH 4 to 9 measured after 24 hrs by HPLC analysis; type: physicochemical; settings: pH 4, 24 h
# [23] = Prodrug activation in human HeLa cells assessed as increase in GSH-mediated PpIX production at 300 to 1000 uM incubated for 4 hrs by fluorescence based assay; type: cell-based
# [24] = Prodrug activation in human A375 cells assessed as increase in GSH-mediated PpIX production at 100 uM incubated for 4 hrs by fluorescence based assay relative to 5-ALA-OMe; type: cell-based; settings: a-375, 4 h
# [25] = test system: HeLa; experiment: Cytotoxicity against human HeLa cells assessed as reduction in cell viability at 300 to 1000 uM incubated for 4 hrs measured under dark conditions by MTT assay; type: cell-based
# [26] = test system: HeLa; experiment: Potency index, ratio of 5-ALA IC50 to compound IC50 for photosensitization activity against human HeLa cells by MTT assay; type: functional
# [27] = Prodrug activation in human A375 cells assessed as increase in GSH-mediated PpIX production at 500 to 1000 uM incubated for 4 hrs by fluorescence based assay; type: cell-based; settings: a-375, 4 h
# [28] = Prodrug activation in human A549 cells assessed as increase in GSH-mediated PpIX production at 100 uM incubated for 4 hrs by fluorescence based assay relative to 5-ALA; type: cell-based; settings: a549, 4 h
# [29] = Prodrug activation in human A549 cells assessed as increase in GSH-mediated PpIX production at 100 uM incubated for 4 hrs by fluorescence based assay relative to 5-ALA-OMe; type: cell-based; settings: a549, 4 h
# [30] = Prodrug activation in human HCT116 cells assessed as increase in GSH-mediated PpIX production at 100 uM incubated for 4 hrs by fluorescence based assay relative to 5-ALA-OMe; type: cell-based; settings: hct-116, 4 h
# [31] = test system: A-375; experiment: Cytotoxicity against human A375 cells assessed as reduction in cell viability at 500 to 1000 uM incubated for 4 hrs measured under dark conditions by MTT assay; type: cell-based; settings: a-375, 4 h
# [32] = Prodrug activation in human A549 cells assessed as increase in GSH-mediated PpIX production at 500 to 1000 uM incubated for 4 hrs by fluorescence based assay; type: cell-based; settings: a549, 4 h
# [33] = Prodrug activation in human HeLa cells assessed as increase in GSH-mediated PpIX production at 100 uM incubated for 4 hrs by fluorescence based assay relative to 5-ALA; type: cell-based
# [34] = test system: HeLa; experiment: Cytotoxicity against human HeLa cells assessed as reduction in cell viability at 10 to 300 uM incubated for 4 hrs measured under dark conditions by MTT assay; type: cell-based
# [35] = Prodrug activation in human HeLa cells assessed as increase in GSH-mediated PpIX production at 100 uM incubated for 4 hrs pretreated for 1 hr with 1 mM intracellular GSH depletor, DEM by fluorescence imaging analysis; type: cell-based
# [36] = test system: HeLa; experiment: Potency index, ratio of 5-ALA-OMe IC50 to compound IC50 for photosensitization activity against human HeLa cells by MTT assay; type: functional
# [37] = test system: A549; experiment: Cytotoxicity against human A549 cells assessed as reduction in cell viability at 500 to 1000 uM incubated for 4 hrs measured under dark conditions by MTT assay; type: cell-based; settings: a549, 4 h
# [38] = test system: HCT-116; experiment: Cytotoxicity against human HCT116 cells assessed as reduction in cell viability at 500 to 1000 uM incubated for 4 hrs measured under dark conditions by MTT assay; type: cell-based; settings: hct-116, 4 h
# [39] = test system: HCT-116; experiment: Cytotoxicity against human HCT116 cells assessed as reduction in cell viability incubated for 4 hrs followed by LED light array irradiation followed by further incubation for 24 hrs by MTT assay; type: functional, cell-based
# [40] = test system: HeLa; experiment: Cytotoxicity against human HeLa cells assessed as cell viability at 10 to 1000 uM incubated for 4 hrs followed by LED light array irradiation followed by further incubation for 24 hrs by MTT assay; type: functional, cell-based
# [41] = test system: A-375; experiment: Cytotoxicity against human A375 cells assessed as reduction in cell viability incubated for 4 hrs followed by LED light array irradiation followed by further incubation for 24 hrs by MTT assay; type: functional, cell-based
# [42] = Prodrug activation in human HeLa cells assessed as GSH-mediated PpIX production at 10 to 1000 uM incubated for 4 hrs by fluorescence based assay; type: cell-based
# [43] = test system: A549; experiment: Cytotoxicity against human A549 cells assessed as reduction in cell viability incubated for 4 hrs followed by LED light array irradiation followed by further incubation for 24 hrs by MTT assay; type: functional, cell-based
# [44] = Prodrug activation in human HeLa cells assessed as increase in GSH-mediated PpIX production at 300 uM incubated for 4 hrs by fluorescence based assay; type: cell-based
compound,measurement,setting,value
COC(=O)CCC(=O)CN [METHYL AMINOLEVULINATE],Activity,[1],Non-Toxic
same,Drug metabolism,[2],Metabolite_Detected
same,viability at 100 µM,[3],> 80%
same,Activity,[4],inactive
same,Drug metabolism,[5],Metabolite_Notdetected
same,Stability,[6],Unstable
same,Drug metabolism,[7],Metabolite_Detected
same,Stability,[8],Stable
same,Drug metabolism,[9],Metabolite_Detected
same,viability at 100 µM,[10],> 80%
same,Stability,[11],Unstable
same,Drug metabolism,[12],Metabolite_Detected
same,viability at 100 µM,[13],> 80%
same,Drug metabolism,[14],Metabolite_Detected
same,pIC50,[15],3.12
same,logP at 0.5 h,[16],-0.94
COC(=O)CCC(=O)CNC(=O)OCCSSCCOC(=O)NCC(=O)CCC(=O)OC,fold change (FC),[17],3 to 40
same,Drug metabolism,[2],Metabolite_Detected
same,fold change (FC),[18],70
same,viability at 100 µM,[3],16%
same,viability at 100 µM,"[4]; light or radiation study, read-out: Activity",30%
same,Drug metabolism,[19],Metabolite_Detected
same,Drug metabolism,[20],Metabolite_Detected
same,fold change (FC),[21],3 to 40
same,Drug metabolism,[5],Metabolite_Detected
same,Stability,[22],Stable
same,Stability,[6],Stable
same,Drug metabolism,[23],Metabolite_Detected
same,fold change (FC),[24],43
same,Activity,[25],Toxic
same,Ratio IC50,[26],4
same,Drug metabolism,[7],Metabolite_Detected
same,Stability,[8],Stable
same,Drug metabolism,[9],Metabolite_Detected
same,viability at 100 µM,[10],13%
same,Drug metabolism,[27],Metabolite_Detected
same,fold change (FC),[28],3 to 40
same,Stability,[11],Stable
same,fold change (FC),[29],84
same,fold change (FC),[30],28
same,Drug metabolism,[12],Metabolite_Detected
same,Activity,[31],Toxic
same,Drug metabolism,[32],Metabolite_Detected
same,fold change (FC),[33],20
same,viability at 100 µM,[13],14%
same,Activity,[34],Toxic
same,pIC50,[15],4.21
same,logP at 0.5 h,[16],0.84
same,Drug metabolism,[35],Metabolite_Detected
same,Ratio IC50,[36],12
same,Activity,[37],Toxic
same,Activity,[38],Toxic
COC(=O)CCC(=O)CNC(=O)OCCCCCCOC(=O)NCC(=O)CCC(=O)OC,inhibition,[39],inactive
same,Activity,[1],Non-Toxic
same,inhibition,[40],inactive
same,Drug metabolism,[5],Metabolite_Notdetected
same,inhibition,[41],inactive
same,Drug metabolism,[42],Metabolite_Notdetected
same,inhibition,[43],inactive
NCC(=O)CCC(=O)O [AMINOLEVULINIC ACID],Activity,[1],Non-Toxic
same,Drug metabolism,[2],Metabolite_Detected
same,viability at 100 µM,[3],> 80%
same,Activity,[4],inactive
same,Drug metabolism,[44],Metabolite_Detected
same,Drug metabolism,[5],Metabolite_Notdetected
same,Stability,[6],Unstable
same,Drug metabolism,[7],Metabolite_Detected
same,Stability,[8],Stable
same,Drug metabolism,[9],Metabolite_Detected
same,viability at 100 µM,[10],> 80%
same,Stability,[11],Unstable
same,Drug metabolism,[12],Metabolite_Detected
same,viability at 100 µM,[13],60%
same,pIC50,[15],3.64
same,logP at 0.5 h,[16],-1.52
